According to US20160193240A1, “Ulmoside-A: Useful For Prevention Or Cure Of Metabolic Diseases” (COUNCIL OF SCIENTIFIC & INDUSTRIAL RESEARCH, priority 2013, published 2016):

Experiments:
[1] = system: Human SVF; test: Brown adipose marker protein level in human stromal vascular fractions; type: cell-based; conditions: differentiated in presence of ULMA, 21 d
Description: C. Cells from identical set of experiments as described in FIGS. 5A and 5B or human SVFs prepared by collagenase digestions were analyzed by western blot analysis for determination of UCP-1, UCP-2 and PGC-1α protein level. Beta-actin was used as a loading control. Data is representative of three independent experiments.
Mouse stromal vascular fractions (SVF) from epididymal fat pad were prepared using standard collagenase digestion method. Human SVF was prepared from human lipoaspirates (subcutaneous) collected from an obese individual undergoing liposuction following approval of Institutional Ethical Committee. To isolate SVFs, epidymal fat pads tissue or lipoaspirates were washed 6× in PBS and then were dispensed in tissue culture flasks. 0.2% sterile collagenase (Sigma) solution containing 1× antibiotic-antimycotic (Invitrogen) was then added to the adipose and the flasks were shaken vigorously for 10 seconds. The flasks were then incubated at 37° C. on a shaker for 2 hours with manual shaking of the flasks for 5-10 seconds every 15 min. After completion of digestion, FBS was added to the final concentration of 10% to the flasks, mixed and the collagenase digested tissue were then dispensed in 50 ml conical tubes and were centrifuged at 400 g for 10 min at room temp. […]

[2] = system: C2C12 myotubes; test: QRT-PCR of fatty acid transport, oxidation, mitochondrial biogenesis genes in C2C12 myotubes; type: cell-based, mouse; conditions: 10 nM, 12 or 24 hours
Description: A. ULMA induces expression of fatty acid transport, oxidation, mitochondrial biogenesis and energy dissipation related genes. C2C12 myotubes in 6 well plates were treated with 10 nM ULMA or vehicle (designated as 0 h; 0.1% vol/vol DMSO) for 12 h or 24 h. Following treatment, RNA was extracted and 1 μg RNA from each well was used to prepare cDNA and the cDNAs were then used for quantitative real-time PCR for indicated genes. Beta-actin was used as normalizing control. The relative mRNA level was quantitated using ddCT method and plotted as fold activity over vehicle treated control (0 h). Data is mean±SEM of 4-6 independent experiments performed in triplicates. *p<0.05, **p<0.01, ***p<0.001 compared to vehicle (DMSO) treated controls as determined by two tailed unpaired student's t-test.
Adiponectin enhances transcription of genes regulating fatty acid transport, fatty acid-oxidation and mitochondrial uncoupling proteins in skeletal muscle and myotubes (T. Kadowaki, T. Yamauchi, N. Kubota, K. Hara, K. Ueki, K. Tobe. J Clin Invest. 116(7): 1784-92. 2006; S. Dridi, M. Taouis. Journal of Nutritional Biochemistry 20 (2009): 831-839. 2009; M. Iwabu, T. Yamauchi, M. Okada-Iwabu, K. Sato, T. Nakagawa, M. Funata, M. Yamaguchi, S. Namiki, R. Nakayama, M. Tabata, H. Ogata, N. Kubota, I. Takamoto, Y. K. Hayashi, N. Yamauchi, H. Waki, M. Fukayama, I. Nishino, K. Tokuyama, K. Ueki, Y. Oike, S. Ishii, K. Hirose, T. Shimizu, K. Touhara, T. Kadowaki. Nature; 464(7293):1313-1319. 2010). The ability of ULMA to influence expression of these genes were checked in c2c12 myotubes. C2C12 myotubes in 6 well plates were treated with 10 nM ULMA or vehicle (DMSO) for 12 hours or 24 hours. Following treatment, the cells were washed with ice-cold PBS and RNA was extracted using Trizol (Ambion) according to manufacturer's instructions. The RNAs were quantitated using a spectrophotometer (nanophotometer; Implen GMBH) and 1 μg RNA was used to prepare cDNA using a cDNA synthesis kit (Applied Biosystems). cDNAs were then used for quantitative real-time PCR for indicated genes (FIG. 3A) using Veriquest SYBR green QRT-PCR mastermix (US Biologicals) and a Roche lightcycler 480 thermal cycler (Roche Diagnostics). Beta-actin was used as normalizing control. The relative mRNA level was quantitated using ddCT method. […] Adiponectin is also known to induce muscle and adipose glucose transporter 4 (GLUT4) expressions; and the ability of ULMA to induce the expression of GLUT4, PPAR and PGC-1α was investigated by western blotting. C2C12 myotubes in 10 cm dish were treated with vehicle (DMSO) or 10 nM ULMA in DMSO for 24 hours or 48 hours followed by western blotting as described [S. K. Dwivedi, N. Singh, R. Kumari, J. S. Mishra, S. Tripathi, P. Banerjee, P. Shah, V. Kukshal, A. M. Tyagi, A. N. Gaikwad, R. K. Chaturvedi, D. P. Mishra, A. K. Trivedi, S. Sanyal, N. Chattopadhyay, R. Ramachandran, M. I. Siddiqi, A. Bandyopadhyay, A. Arora, T. Lundasen, S. P. Anakk, D. D. Moore, S. Sanyal. Mol Endocrinol. 25(6): 922-932. 2011).

[3] = system: db/db mice; test: Body weight of db/db mice; type: in vivo, mouse; conditions: 5 mg/kg ULMA for 15 d
Description: 8 week old db/db mice were treated with vehicle (V; 1% gum acacia) or with 5 mg/kg ULMA for 15 days and the body weights were measured on 0th, 7th, 10th, or 15th day of treatment and plotted. ** p<0.01, n=6.
8 week old female db/db mice (n=6) weighing 40-50 g were divided into 2 groups and maintained as above. Control groups received vehicle (1% gum acacia) and ULMA groups received 5 mg/kg bw ULMA in 1% gum acacia for […]. Body weight and blood glucose were measured at the beginning and end of the studies.

[4] = system: wistar rats; test: Dexamethasone mediated cardiac hypertrophy in rats (heart weight/body weight ratio); type: in vivo, rat
Description: Following 15 d treatment with indicated compounds or vehicle, animals were euthanized and heart weight and body weight were measured and heart weight/body weight ratio were calculated and plotted. Data represents mean+/−SEM. N=6. *p<0.05 as determined by student's t-test.
Blood was collected from cardiac punctures.
Therefore, the heart weight/body weight ratio was measured in these rats (described in Example 6A-C).

For O=C1c2c(cc(O)c([C@@H]3O[C@H](CO)[C@@H](O)[C@H](O)[C@H]3O)c2O)O[C@@H](c2ccc(O)c(O)c2)[C@@H]1O [ULMA, (2S,3S)-(+)-3′,4′,5,7-tetrahydroxydihydroflavonol-6-C-β-D-glucopyranoside], the PGC-1α protein level [1] was “elevated”, the UCPs protein level [1] was “elevated” and the “ACOX1 mRNA expression” value [2] was “enhanced expressions”. The “CD36 mRNA expression” value [2] was “induced expression”, the “CPT1B mRNA expression” value [2] was “enhanced expressions” and the “FABP3 mRNA expression” value [2] was “induced expression”. For the same molecule, the “PGC-1α mRNA expression” value [2] was “induced expression”, the “PPARα mRNA expression” value [2] was “induced expression” and the “fatty acyl CoA synthetase mRNA expression” value [2] was “enhanced expressions”. The “uncoupling protein 2 mRNA expression” value [2] was “induced expressions”, the “uncoupling protein 3 mRNA expression” value [2] was “induced expressions” and the “body weight compared to vehicle treated control mice” value [3] was “significantly reduced body weight”. For the same molecule, the “Dex-caused increase of heart/body weight ratio” value ([4]; Dex + ULMA) was “significantly alleviated this increase” and the “heart weight/body weight ratio in control animals” value ([4]; ULMA alone) was “did not change”.
